Laboratory results: patent publication US20250270648A1, “MOLECULAR SIGNATURE FOR ASSESSING THE RESPONSIVENESS OF CANCER TO MITOCHONDRIA-TARGETED ANTIOXIDANTS” (UNIVERSITÉ CATHOLIQUE DE LOUVAIN, priority 2021, published 2025)

Experiments:
[1] = tested on: MDA-MB-231 human breast cancer cells; test: Mitochondrial potential, JC-10; assay type: cell-based; conditions: 48 h
Description: (§1) The mitochondrial potential (ΔΨ) was measured using JC-10 Mitochondrial Membrane Potential Assay Kit (Abcam®, #ab112134), according to manufacturer's recommendations. Briefly, MDA-MB-231 (10^4 cells/well), SkBr3 (10^4 cells/well), MDA-MB-436 (10^4 cells/well) or MCF10A (10^5 cells/well) cells were seeded in 96-well plates and treated for 48 h±MitoQ. Cells were then washed twice and incubated with JC-10 (1× solution) for 45 min. Fluorescence intensities were measured at 490/525 nm and […] using a SpectraMax i3 spectrophotometer equipped with a MiniMax imaging cytometer (Molecular Devices®).

[2] = tested on: SkBr3 human breast cancer cells; test: Mitochondrial potential, JC-10; assay type: cell-based; conditions: indicated doses of MitoQ, 48 h
Description: as §1

[3] = tested on: MCF10A normal breast epithelial cells; test: Mitochondrial potential, JC-10; assay type: cell-based, human; conditions: MitoQ 100 nM, 48 h
Description: as §1

MDA-MB-436 cells [4] = test: Western blotting (EMT proteins); assay type: cell-based, human; conditions: MitoQ 500 nM, 48 h
Description: For western blotting (WB), whole-protein extracts from MDA-MB-231, SkBr3 and MDA-MB-436 cells were prepared using RIPA buffer (50 mM Tris pH 7.4, 150 mM NaCl, 1% Triton-X-100, 0.05% sodium deoxycholate, 1 mM EDTA, 0.1% SDS, protease inhibitor cocktail and PhosSTOP Phosphatase Inhibitor Cocktail (Roche®)), centrifuged at 10,000×g for 10 min, and quantified using the Bio-Rad® Protein Assay. Proteins (50 μg for MDA-MB-231 and 100 μg for SkBr3 and MDA-MB-436 cells) were loaded into each lane of a 10-12% polyacrylamide gel in the presence of SDS, and were allowed to separate at 120 V for 90 min. The transfer of proteins onto nitrocellulose membranes was performed using an iBlot 2 Dry Blotting System (Thermo Fisher Scientific®) with the 7 min P0 program. Membranes were then blocked using 5% (w/v) powdered milk for 1 h, and incubated overnight at 4° C. with a primary antibody (Table 4).
β-actin served as a loading control. Immunodetection was performed at room temperature for 1 h using as secondary antibodies a horseradish peroxidase-conjugated goat anti-rabbit (Jackson®, Cat #111-035-003) and goat anti-mouse (Jackson®, Cat #115-035-003) in PBS-Tween containing 5% (w/v) milk or BSA. Detection was performed with ECL reagent (Amersham®, Cat #RPN2209), and protein bands were visualized and captured using ECL imager 600 (Amersham®). They were analyzed using the Image J software (Java).

MDA-MB-231 cancer cells = test: Cell morphology, H&E; assay type: cell-based, human; conditions: MitoQ 100 to 500 nM, 48 h
Description: (§2) To visualize cell morphology, MDA-MB-231, SkBr3 and MDA-MB-436 cells were seeded in 24-well plates and treated ±MitoQ for 48 h, fixed in 100% methanol for 10 min stained with hematoxylin and eosin (H&E) for 10 min each, washed with water and dried. Pictures were acquired on an Axiovert 40 CFL microscope (Zeiss®) equipped with a MRC camera (Zeiss®).

SkBr3 cancer cells = test: Cell morphology, H&E; assay type: cell-based, human; conditions: MitoQ 100 to 500 nM, 48 h
Description: as §2

MDA-MB-231 cells = test: Cell migration, scratch test; assay type: cell-based, human; conditions: MitoQ 100 nM, 48 h
Description: (§3) A scratch test was performed on cells treated ±MitoQ for 48 h (Tamura et al.; Science, 1998; 280, 1614-1617). For each condition and each time point, pictures were taken in the same field, and the distance between the wound edges was analyzed using the Image J software (Java®). The percentage of scratch closure was calculated in respect to wounded area at 0 h.

MDA-MB-436 cells [5] = test: Cell migration, scratch test; assay type: cell-based, human; conditions: MitoQ 100 nM, 48 h
Description: as §3

SkBr3 cells = test: Cell migration, scratch test; assay type: cell-based, human; conditions: MitoQ 100 nM, 48 h
Description: as §3

[6] = tested on: MDA-MB-231 human triple-negative breast cancer; test: Spontaneous metastasis and recurrence, orthotopic MDA-MB-231 model; assay type: in vivo, mouse; conditions: MitoQ 20 mg/kg daily oral
Description: For spontaneous metastasis assays using human breast cancer cells, MDA-MB-231, SkBr3 or MDA-MB-436 cells were prepared in medium containing 10% growth factor-reduced Matrigel (Corning®, cat #734-11-01). Five weeks-old female Rj:NMRI-Foxnlnu/nu mice (Janvier) were injected with 10^6 cancer cells in 100 μL of solution in the left second mammary fat pad. After tumor take (72 h), mice were daily treated ±20 mg/Kg MitoQ by oral gavage. Tumor size was measured once per week with an electronic caliper. Four weeks after treatment initiation, primary tumors were surgically removed and processed for RT-qPCR. Tumor recurrence was monitored until recurred tumors in the vehicle group reached about […], i.e. 24 days after surgery. At this time point, mice were sacrificed and their lungs collected and fixed in PFA 4% for immunocytochemistry.
Collected lungs were processed for immunohistochemistry as previously shown. They were stained for Cytokeratin 19 (CK19) using a primary rabbit recombinant anti-CK19 antibody (Abcam®, cat #ab76539) and a secondary Envision anti-rabbit antibody coupled to HRP (Dako®, cat #K4003), and counter-stained with H&E. Images of whole lung slides were acquired on a SCN400 Slide Scanner (Leica®) and analyzed with the QuPath Software (0.1.2). Quantification was performed according to Chang and Erler (Adv Exp Med Biol, 2016; 899, 245-251), and the number of lung metastases was proportional to the positive areas of CK19 staining.

[7] = tested on: human MCF7 breast cancer cells; test: Cell viability, CellTiter-Glo; assay type: cell-based; conditions: increasing doses of DXR ±100 nM MitoQ, 48 h
Description: (§4) Cells were plated in 96-well plates and left to adhere for 16 hours. In order to avoid reaching full confluence at the endpoint, starting cell count was defined according to doubling time and the duration of the experiment. Following adhesion, cells were treated with the indicated compounds for 48 h, after which staining was done with a CellTiter-Glo Luminescent Cell Viability assay (Promega®, catalogue #G7570), according to supplier's instructions. This method is based on the quantification of intracellular ATP levels.

[8] = tested on: murine 4T1 breast cancer cells; test: Cell viability, CellTiter-Glo; assay type: cell-based, mouse; conditions: increasing doses of DXR ±100 nM MitoQ, 48 h
Description: as §4

[9] = tested on: murine 4T1 breast cancer cells; test: Cell viability, crystal violet; assay type: cell-based, mouse; conditions: increasing doses of cisplatin ±100 nM MitoQ, 48 h
Description: […] The solution was carefully removed and plates were washed twice with water. After drying protected by light, cells were resuspended in 50 μl DMSO and the plates were read with a Victor X4 plate reader (Perkin®).

SMILES: COC1=C(OC)C(=O)C(CCCCCCCCCC[P+](c2ccccc2)(c2ccccc2)c2ccccc2)=C(C)C1=O [MitoQ]
- mitochondrial potential (Δψ) ([1]; MitoQ 100 nM): decreased
- Δψ, dose dependence ([1]; indicated doses of MitoQ): dose-dependent decreases
- Δψ, dose dependence [2]: dose-dependent decreases
- mitochondrial potential (Δψ) [3]: not affected
- protein expression of Vimentin, SNAI1, SNAI2 (SLUG), ZEB1 and TWIST1 (MDA-MB-436 cells [4]): decrease
- Morphological changes (MDA-MB-231 cancer cells): not obvious
- Morphological changes (SkBr3 cancer cells): not obvious
- migratory capability (MDA-MB-231 cells): highly significantly reduced
- cell migration (MDA-MB-436 cells [5]): inhibited
- migratory capability (SkBr3 cells): highly significantly reduced
- primary tumor growth ([6]; P=0.3150): not significantly affected
- recurrence-free survival ([6]; after surgery): significantly improved
- mice with no metastasis ([6]; day +56, 9.5% in the control group): 75.0%
- metastatic dissemination (lungs) ([6]; sacrifice day +56): highly significantly prevented
- animals in which primary tumors relapsed after surgery ([6]; surgery day +32, 100% in the control group): 25%
- DXR-induced cell killing [7]: did not interfere
- DXR-induced cell killing [8]: did not interfere
- cancer cell killing activity, cisplatin combined with MitoQ [9]: did not interfere
